Reference: ChEMBL document CHEMBL1201862, “PubChem BioAssay data set” (2004)
Values joined by “and” are separate entries in the source; they are usually repeats but may differ in a detail not shown here. Equal values may be shown once.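 Interpolation was linear, between the two tested concentrations surrounding the appropriate level; five concentrations were tested over 48 hours in 96-well plates. At the GI50, growth is halved.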 Active and inactive are the calls of the source. Rule as the data show it: active = GI50 up to about 1.1 µM and inactive = higher.

Tests used:
Assay in all cases: inhibition of tumour cell growth, NCI panel, 48 h
786-0 = system: 786-0
EKVX = system: EKVX
HCT-15 = system: HCT-15
IGROV-1 = system: IGROV-1
MCF7 = system: MCF7
MDA-MB-231 = system: MDA-MB-231
MDA-MB-435 = system: MDA-MB-435
MOLT-4 = system: MOLT-4
OVCAR-3 = system: OVCAR-3
OVCAR-5 = system: OVCAR-5
RPMI-8226 = system: RPMI-8226
SF-539 = system: SF-539
SK-MEL-28 = system: SK-MEL-28
SK-MEL-5 = system: SK-MEL-5
SR = system: SR
TK-10 = system: TK-10
U-251 = system: U-251
UACC-257 = system: UACC-257
UO-31 = system: UO-31
HL-60 = system: HL-60

SMILES | GI50 (786-0) | GI50 (EKVX) | GI50 (HCT-15) [µM] | GI50 (IGROV-1) | GI50 (MCF7) | GI50 (MDA-MB-231) | GI50 (MDA-MB-435) | GI50 (MOLT-4) | GI50 (OVCAR-3) | GI50 (OVCAR-5) | GI50 (RPMI-8226) | GI50 (SF-539) | GI50 (SK-MEL-28) | GI50 (SK-MEL-5) | GI50 (SR) | GI50 (TK-10) | GI50 (U-251) | GI50 (UACC-257) | GI50 (UO-31) | GI50 (HL-60)
Cc1cc(C)c(O)c(Cc2cccc(Cc3cc(C)cc(C)c3O)c2O)c1 | > 100 µM (inactive) | > 100 µM (inactive) | > 100 | > 100 µM (inactive) | > 100 µM (inactive) | > 100 µM (inactive) | > 100 µM (inactive) | > 100 µM (inactive) | > 100 µM (inactive) | > 100 µM (inactive) | > 100 µM (inactive) | > 100 µM (inactive) | > 100 µM (inactive) | > 100 µM (inactive) | 77.6 µM (inactive) | > 100 µM (inactive) | > 100 µM (inactive) | > 100 µM (inactive) | > 100 µM (inactive) | 
OCc1cc2c([nH]c3ccccc32)c(C(O)CO)n1 (configuration not stated) | > 100 µM (inactive) | > 100 µM (inactive) | > 100 | > 100 µM (inactive) | > 100 µM (inactive) | > 100 µM (inactive) | > 100 µM (inactive) | > 100 µM (inactive) | > 100 µM (inactive) | > 100 µM (inactive) | > 100 µM (inactive) | > 100 µM (inactive) | > 100 µM (inactive) | > 100 µM (inactive) |  | > 100 µM (inactive) | > 100 µM (inactive) | > 100 µM (inactive) | > 100 µM (inactive) | > 100 µM (inactive)
CCOC(=O)c1nc2cc(C(F)(F)F)ccc2nc1Nc1ccc(F)cc1 | > 100 µM (inactive) | 68.2 µM (inactive) | 37.4 | 34.8 µM (inactive) | 85.5 µM (inactive) | > 100 µM (inactive) | > 100 µM (inactive) | > 10 µM (inactive) | 44.8 µM (inactive) | > 100 µM (inactive) | 6.21 µM (inactive) | 19.5 µM (inactive) | > 100 µM (inactive) | 47.8 µM (inactive) |  | 73.5 µM (inactive) | 24.5 µM (inactive) | > 100 µM (inactive) |  | 
C=CCOc1ccc(C(=N/NC(=O)c2ccccc2)/N=N/c2ccc(C)cc2)cc1OC | 33.9 µM (inactive) | 30.9 µM (inactive) | 35.1 | 18.7 µM (inactive) | 35.1 µM (inactive) | 24.4 µM (inactive) | 19.5 µM (inactive) | 26.5 µM (inactive) | 25.9 µM (inactive) | 42.6 µM (inactive) |  |  | 20 µM (inactive) | 17.9 µM (inactive) | 6.17 µM (inactive) | 30 µM (inactive) | 10.4 µM (inactive) | 19.6 µM (inactive) | 24.8 µM (inactive) | 4.83 µM (inactive)
COc1cc2c(cc1O)C1Cc3ccc(OC)c(O)c3C(C2)N1C (configuration not stated) | > 100 µM (inactive) | > 100 µM (inactive) | > 100 | > 100 µM (inactive) | > 100 µM (inactive) | 41.5 µM (inactive) | > 100 µM (inactive) | 58.1 µM (inactive) | > 100 µM (inactive) | > 100 µM (inactive) | > 100 µM (inactive) | > 100 µM (inactive) | > 100 µM (inactive) | > 100 µM (inactive) |  | > 100 µM (inactive) | > 100 µM (inactive) | > 100 µM (inactive) | > 100 µM (inactive) | > 100 µM (inactive)
CCOP(=O)(OCC)OC1c2[nH]ccc2-c2cc(C(=O)OC)[nH]c2C1OC (configuration not stated) | > 100 µM (inactive) | > 100 µM (inactive) | 59.3 | > 100 µM (inactive) | > 100 µM (inactive) | 31.6 µM (inactive) | 77.4 µM (inactive) | > 100 µM (inactive) | > 100 µM (inactive) | > 100 µM (inactive) |  | > 100 µM (inactive) | 82 µM (inactive) | 38.5 µM (inactive) |  | 73.6 µM (inactive) | > 100 µM (inactive) | > 100 µM (inactive) | 46.3 µM (inactive) | 62.1 µM (inactive)
O=C1/C(=C/c2ccco2)NC(=S)N1CN1CCCCC1 | 70.1 µM (inactive) | 98.4 µM (inactive) | 28.6 | 81.3 µM (inactive) | 36.3 µM (inactive) | > 100 µM (inactive) | > 100 µM (inactive) | > 100 µM (inactive) | > 100 µM (inactive) | > 100 µM (inactive) | 28.8 µM (inactive) |  | > 100 µM (inactive) | 57.8 µM (inactive) | 34.5 µM (inactive) | > 100 µM (inactive) | > 100 µM (inactive) |  | 26.9 µM (inactive) | 
CC1CC/C(=C\c2ccc(F)cc2)C2=C1C(c1ccc(F)cc1)NC(=S)N2 (configuration not stated) | 63.4 µM (inactive) | 12.9 µM (inactive) | 41 | 43.5 µM (inactive) | 53.3 µM (inactive) | 47.8 µM (inactive) | 57.7 µM (inactive) | 49.2 µM (inactive) | 33.8 µM (inactive) |  | 18.1 µM (inactive) | > 100 µM (inactive) | 88.3 µM (inactive) | 31 µM (inactive) |  | 79.3 µM (inactive) | 61.4 µM (inactive) | 43.2 µM (inactive) | 23.2 µM (inactive) | 38.5 µM (inactive)
CCC1(c2ccc(OC)c(OC)c2)CCN2C(=O)C(O)CC21 (configuration not stated) | > 100 µM (inactive) | > 100 µM (inactive) | > 100 | > 100 µM (inactive) | > 100 µM (inactive) | > 100 µM (inactive) | > 100 µM (inactive) | > 100 µM (inactive) | > 100 µM (inactive) | > 100 µM (inactive) |  |  | > 100 µM (inactive) | > 100 µM (inactive) | > 100 µM (inactive) | > 100 µM (inactive) | > 100 µM (inactive) | > 100 µM (inactive) | > 100 µM (inactive) | 
CCOc1ccc2nc3cc(/N=N/c4ccc(N)nc4N)ccc3c(N)c2c1 | 1.46 µM (inactive) | 7.96 µM (inactive) | 37.8 | 23.6 µM (inactive) | 3.15 µM (inactive) | 1.54 µM (inactive) | 3.03 µM (inactive) | 1.46 µM (inactive) | 1.53 µM (inactive) | 21.1 µM (inactive) | 20 µM (inactive) | 2.05 µM (inactive) | 15.6 µM (inactive) | 17.3 µM (inactive) |  | 13.9 µM (inactive) | 0.578 µM (active) | 19.1 µM (inactive) | 28.4 µM (inactive) | 1.95 µM (inactive)
CC1=NC(=N)N=C(C)C1/N=N/c1ccc2[nH]c(C)nc2c1 (configuration not stated) | > 100 µM (inactive) | > 100 µM (inactive) | > 100 | > 100 µM (inactive) | > 100 µM (inactive) | > 100 µM (inactive) | > 100 µM (inactive) | > 100 µM (inactive) | > 100 µM (inactive) | > 100 µM (inactive) | > 100 µM (inactive) | > 100 µM (inactive) | > 100 µM (inactive) |  |  | > 100 µM (inactive) | > 100 µM (inactive) | > 100 µM (inactive) |  | > 100 µM (inactive)
COC(=O)C(=O)C(C(=O)C(=O)Nc1cccc(OC)c1)c1nc2ccc(Cl)cc2nc1O (configuration not stated) | > 100 µM (inactive) | 27.6 µM (inactive) | > 100 | > 100 µM (inactive) | > 100 µM (inactive) | > 100 µM (inactive) | 83.6 µM (inactive) | > 100 µM (inactive) | > 100 µM (inactive) | > 100 µM (inactive) | > 100 µM (inactive) | > 100 µM (inactive) | > 100 µM (inactive) | > 100 µM (inactive) |  | > 100 µM (inactive) | > 100 µM (inactive) | > 100 µM (inactive) | > 100 µM (inactive) | > 100 µM (inactive)
COC(=O)[C@@H]1CC(C(C[N+](=O)[O-])c2ccc(O[Si](C)(C)C(C)(C)C)cc2)C(=O)N1C(=O)OC(C)(C)C (some centres not stated) | > 100 µM (inactive) | > 100 µM (inactive) and 61.5 µM (inactive) |  | > 100 µM (inactive) | 45.5 µM (inactive) and 29.6 µM (inactive) | > 100 µM (inactive) | > 100 µM (inactive) and 73.5 µM (inactive) |  | > 100 µM (inactive) | > 100 µM (inactive) |  | > 100 µM (inactive) | > 100 µM (inactive) |  | 21 µM (inactive) and 33.8 µM (inactive) | > 100 µM (inactive) | > 100 µM (inactive) and 78 µM (inactive) | > 100 µM (inactive) and 88.7 µM (inactive) | 32.7 µM (inactive) and 60.7 µM (inactive) | 
O=[N+]([O-])c1cnc(N(CCO)CCO)s1 | > 100 µM (inactive) | > 100 µM (inactive) | > 100 | > 100 µM (inactive) | > 100 µM (inactive) | > 100 µM (inactive) | > 100 µM (inactive) | > 100 µM (inactive) | > 100 µM (inactive) | > 100 µM (inactive) |  | > 100 µM (inactive) | > 100 µM (inactive) | > 100 µM (inactive) | > 100 µM (inactive) |  | > 100 µM (inactive) | > 100 µM (inactive) | > 100 µM (inactive) | > 100 µM (inactive)
C#CCOC(=O)C(N)CS (configuration not stated) | > 100 µM (inactive) | > 100 µM (inactive) |  | > 100 µM (inactive) | > 100 µM (inactive) | > 100 µM (inactive) | > 100 µM (inactive) | > 100 µM (inactive) | > 100 µM (inactive) | > 100 µM (inactive) | > 100 µM (inactive) |  | > 100 µM (inactive) | > 100 µM (inactive) |  | > 100 µM (inactive) | > 100 µM (inactive) | > 100 µM (inactive) | > 100 µM (inactive) | > 100 µM (inactive)
